# Laboratory results from patent US10729741B2, “Methods of treating burns with i.v. cP12 in a window from 2 to 6 hours after injury” (NeoMatrix Therapeutics Inc., priority 2017, dated 2020).
# Read-outs that look alike come from different tables or passages of the source. Residues, ends and D or L forms follow the SMILES beside them.
# Columns and labels:
# [1] = test system: porcine burns; assay: porcine vertical injury progression burn model, wound closure by H&E histology; format: in vivo, pig; details: for percent wounds closed (100% re-epithelialization) at 14 d post-burn: compiled data
# Procedure: For a pathobiology proof-of-principle study we used a validated porcine vertical injury progression burn model (Singer A J, Hirth D, McClain S A, Crawford L, Lin F, and Clark R A. Validation of a vertical progression porcine burn model. J Burn Care Res. 2011; 32(6):638-46). In short, while under general anaesthesia, twenty burns were created on the dorsal skin of four outbred female Yorkshire pigs (˜25 kg) using a 2.5×2.5×7.5 cm, 150 gram aluminum bar equilibrated in an 80° C. water bath and applied for 20 s. The application of the 80° C. aluminum bar caused burn injury a little beyond mid-dermis but often progressed to full-thickness within 3-7 days. All burns were treated with petrolatum, and protected with Tegaderm. In some pigs, a fibronectin (FN)-derived peptide (P12) (SEQ ID NO:1) was infused over 30 min at 1, 2, and 4 h post-burn using doses of 0.003, 0.01 or 0.03 mg/kg. The infused P12 peptide (SEQ ID NO:1) was cyclized (cP12) (SEQ ID NO:2) to prevent exopeptidase digestion from amino- and carboxy-peptidases, which are common in the blood and skin.
# Tissue specimens taken at 14 days after a 30 min infusion of cP12 (SEQ ID NO:2) doses at 0.003, 0.01, 0.03 or 0.1 mg/kg, where infusions began at 1, 4, 8, 12 and 24 h post-burn, have been fixed, stained with hematoxylin and eosin (H&E), and determined whether the surface of the wound was 100% re-epithelialized, i.e. wound closure obtained. The percent wounds totally re-epithelialized at each cP12 (SEQ ID NO:2) dose and each post-burn time of onset of a 30 min infusion are recorded in Table 1. The number of pigs used for each dose and time is denoted in Table 1 by parentheses. Each pig while under general anesthesia had 20 burn wounds administered on the back by a 2.5×2.5 aluminum bar heated to 80° C. and applied to the skin for 20 sec.
# The effect of cP12 (SEQ ID NO:2) doses at 0.003, 0.01, 0.03 or 0.1 mg/kg at 4 h post-burn 30 min-infusion on percent wounds closed at 14d post-burn the 5 experiments performed under these conditions are shown in Table 2. The dates indicate the onset on each experiment, i.e. the date the pigs receive burns.
# [2] = anaphylactoid response with 30 min infusion in pig models; format: in vivo
# Procedure: Depending on the animal type, cP12 (SEQ ID NO:2) (or linear P12. SEQ ID NO:1) can induce an anaphylactoid response at 2.5 to 10 mg/kg given as an iv bolus or even a rapid infusion. This reaction is less likely with a slower infusion.
# [3] = test system: burn injury; details: cited from earlier work
# [4] = test system: burn injury; details: rat burn model; cited from earlier work
# [5] = test system: mesenchymal cell; details: in solution; intrinsically and synergistically with growth factors, especially PDGF-BB; cited from earlier work
# [6] = test system: adult human dermal fibroblasts (AHDF); details: oxidative and cytokine stress and/or nutrient withdrawal, in the presence of PDGF-BB; cited from earlier work
compound,measurement,setting,value
"CC[C@H](C)[C@@H]1NC(=O)[C@H](Cc2ccc(O)cc2)NC(=O)[C@H](CCCCN)NC(=O)[C@H](CO)NC(=O)[C@H]([C@@H](C)CC)NC(=O)[C@H](Cc2c[nH]cn2)NC(=O)[C@H](CO)NC(=O)[C@@H]2CCCN2C(=O)[C@H](CCCCN)NC(=O)[C@@H]2CCCN2C(=O)[C@H](CCCNC(=N)N)NC(=O)[C@H](Cc2c[nH]c3ccccc23)NC(=O)[C@H](CCCNC(=N)N)NC(=O)[C@H](CC(C)C)NC1=O [cP12] (HELM PEPTIDE1{H.I.S.K.Y.I.L.R.W.R.P.K.P.S}$PEPTIDE1,PEPTIDE1,1:R1-14:R2$$$V2.0)",percent wounds closed (100% re-epithelialization) at 14 d post-burn,"[1]; 0.003 mg/kg, 30 min i.v. infusion begun 1 h post-burn",17 (5) percent
same,percent wounds closed (100% re-epithelialization) at 14 d post-burn,"[1]; 0.003 mg/kg, 30 min i.v. infusion begun 4 h post-burn",37 (3) percent
same,percent wounds closed (100% re-epithelialization) at 14 d post-burn,"[1]; 0.01 mg/kg, 30 min i.v. infusion begun 1 h post-burn",28 (8) percent
same,percent wounds closed (100% re-epithelialization) at 14 d post-burn,"[1]; 0.01 mg/kg, 30 min i.v. infusion begun 4 h post-burn",65 (5) percent
same,percent wounds closed (100% re-epithelialization) at 14 d post-burn,"[1]; 0.01 mg/kg, 30 min i.v. infusion begun 8 h post-burn",34 (5) percent
same,percent wounds closed (100% re-epithelialization) at 14 d post-burn,"[1]; 0.01 mg/kg, 30 min i.v. infusion begun 12 h post-burn",40 (3) percent
same,percent wounds closed (100% re-epithelialization) at 14 d post-burn,"[1]; 0.01 mg/kg, 30 min i.v. infusion begun 24 h post-burn",40 (3) percent
same,percent wounds closed (100% re-epithelialization) at 14 d post-burn,"[1]; 0.03 mg/kg, 30 min i.v. infusion begun 1 h post-burn",8 (8) percent
same,percent wounds closed (100% re-epithelialization) at 14 d post-burn,"[1]; 0.03 mg/kg, 30 min i.v. infusion begun 4 h post-burn",25 (3) percent
same,percent wounds closed (100% re-epithelialization) at 14 d post-burn,"[1]; 0.1 mg/kg, 30 min i.v. infusion begun 1 h post-burn",25 (5) percent
same,percent wounds closed (100% re-epithelialization) at 14 d post-burn,"[1]; 0.1 mg/kg, 30 min i.v. infusion begun 4 h post-burn",50 (2) percent
same,percent wounds closed (100% re-epithelialization) at 14 d post-burn,"[1]; 0.1 mg/kg, 30 min i.v. infusion begun 8 h post-burn",28 (5) percent
same,percent wounds closed (100% re-epithelialization) at 14 d post-burn,"[1]; 0.1 mg/kg, 30 min i.v. infusion begun 12 h post-burn",25 (3) percent
same,percent wounds closed (100% re-epithelialization) at 14 d post-burn,"[1]; 0.1 mg/kg, 30 min i.v. infusion begun 24 h post-burn",17 (3) percent
same,effectiveness of i.v. treatment by time of administration after wounding,[1]; administered 2 to 6 hours after wounding versus one hour or 8 to 12 hours after wounding,more effective
same,anaphylactoid response,[2],avoid any anaphylacoid response
"P12: 14-residue fibronectin fragment PSHISKYILRWRPK, cryptic within fibronectin's first type III repeat (FNIII1) (a 14-residue peptide that is cryptic within the immunoglobulin sandwich type of beta-pleated sheet of fibronectin′s first type III repeat)",burn injury progression,[3]; porcine burn model,limits burn injury progression
same,scarring,[3]; vertical burn injury progression pig model,mitigates scarring
same,burn injury progression,[4],limits burn injury progression
same,"mesenchymal cell growth, proliferation and migration",[5],"promotes mesenchymal cell growth, proliferation and migration"
same,protection from cell death,[6],protects
